The text below walks through data of patent publication US20240254119A1 (THIRD HARMONIC BIO, INC., priority 2022, published 2024).

The series in a line: Kinetic solubility assay. The conditions noted are these: kinetic solubility, 50 mM PB (pH 7.4), shaken 24 hours at RT. It counts as physicochemical. Here is the method: 10 μL of 10 mM in DMSO of test article and control compounds was added into lower chambers of whatman miniuniprep vials, respectively. 490 μL of 50 mM PB (pH 7.4) was then added into lower chambers of the whatman miniuniprep vials, respectively. […] Miniuniprep vials were shaken for 24 hours at RT at the speed of 800 rpm, centrifuged 20 minutes (eg. 4000 rpm) and the filtrates were analyzed by UPLC-UV/HPLC-UV system to calculate the concentration with standard curve.
Filter Membrane: Miniuniprep (PTFE Filter Media with Polypropylene Housing) Cat. No. UN203NPUORG, GE Halthcare Whatman.

Take `Cc1ccc(-c2noc([C@H]3C[C@@H]3F)n2)cc1NC(=O)c1cnc2ccc(CC#N)cn12` [I-15]: the “Solubility (μM)” value is recorded as “**** (a solubility less than or equal to 2 μM)”.

In the case of `Cc1ccc(-c2noc([C@H]3C[C@@H]3F)n2)cc1NC(=O)c1cnc2cc(N3CCCC3=O)ccn12` [I-14], the “Solubility (μM)” value is given as “**** (a solubility less than or equal to 2 μM)”. Turning to `Cc1ccc(-c2noc(C3COC3)n2)cc1NC(=O)c1cnc2cc(C(F)F)ccn12` [I-52], the “Solubility (μM)” value is “**** (a solubility less than or equal to 2 μM)”. `COc1ccn2c(C(=O)Nc3cc(-c4noc([C@H]5C[C@@H]5F)n4)ccc3C)cnc2c1F` [I-34]: the “Solubility (μM)” value was “**** (a solubility less than or equal to 2 μM)”. Take `Cc1ccc(-c2noc(C3COC3)n2)cc1NC(=O)c1cnc2cc(CF)ccn12` [I-48]: the “Solubility (μM)” value is recorded as “**** (a solubility less than or equal to 2 μM)”. In the case of `Cc1ccc(-c2noc([C@H]3C[C@@H]3F)n2)cc1NC(=O)c1cnc2cc(CC#N)ccn12` [I-16] it was “**** (a solubility less than or equal to 2 μM)”; in that of `Cc1ccc(-c2noc([C@H]3C[C@@H]3F)n2)cc1NC(=O)c1cnc2cc(CNC(=O)C(C)(C)O)ccn12` [I-31], “**** (a solubility less than or equal to 2 μM)”.

For the molecule `Cc1noc(-c2ccc3ncc(C(=O)Nc4cc(-c5noc([C@H]6C[C@@H]6F)n5)ccc4C)n3c2)n1` [I-2], the “Solubility (μM)” value was “**** (a solubility less than or equal to 2 μM)”. In the case of `Cc1ccc(-c2noc([C@H]3C[C@@H]3F)n2)cc1NC(=O)c1cnc2cc(CNC(=O)CO)ccn12` [I-7] it was “**** (a solubility less than or equal to 2 μM)”; in that of `Cc1ccc(-c2noc(C3COC3)n2)cc1NC(=O)c1cnc2cc(C(C)(F)F)ccn12` [I-43], “**** (a solubility less than or equal to 2 μM)”; in that of `COc1ccc2ncc(C(=O)Nc3cc(-c4noc(CC(O)C(F)F)n4)ccc3C)n2c1` (single isomer, unassigned) [I-66], “**** (a solubility less than or equal to 2 μM)”. On to `Cc1ccc(-c2noc([C@H]3C[C@@H]3F)n2)cc1NC(=O)c1cnc2ccc(CNS(=O)(=O)C3CC3)cn12` [I-5], for which the “Solubility (μM)” value was “**** (a solubility less than or equal to 2 μM)”. Take `COc1ccn2c(C(=O)Nc3cc(-c4noc(C5COC5)n4)ccc3Cl)cnc2c1` [I-47]: the “Solubility (μM)” value is given as “**** (a solubility less than or equal to 2 μM)”. In the case of `Cc1ccc(-c2noc(CC(O)C(F)F)n2)cc1NC(=O)c1cnc2cc(C(F)F)ccn12` (single isomer, unassigned) [I-70], the “Solubility (μM)” value is listed as “**** (a solubility less than or equal to 2 μM)”.

In the case of `Cc1ccc(-c2noc(C3COC3)n2)cc1NC(=O)c1cnc2cc(OC(F)(F)F)ccn12` [I-24], the “Solubility (μM)” value is recorded as “**** (a solubility less than or equal to 2 μM)”. On to `COc1ccn2c(C(=O)Nc3cc(-c4nc(C)no4)ccc3Cl)cnc2c1` [I-37], for which the “Solubility (μM)” value is given as “**** (a solubility less than or equal to 2 μM)”.

As for `Cc1ccc(-c2noc(CC(O)C(F)(F)F)n2)cc1NC(=O)c1cnc2ccccn12` (single isomer, unassigned) [I-67], the “Solubility (μM)” value is “**** (a solubility less than or equal to 2 μM)”. As for `Cc1ccc(-c2noc([C@H]3C[C@@H]3F)n2)cc1NC(=O)c1cnn2cc(OC(F)(F)F)ccc12` [I-19], the entry is “**** (a solubility less than or equal to 2 μM)”; as for `COc1ccn2c(C(=O)Nc3cccc(-c4noc([C@H]5C[C@@H]5F)n4)c3F)cnc2c1` [I-53], “**** (a solubility less than or equal to 2 μM)”. On to `Cc1ccc(-c2noc(C3CC3F)n2)cc1NC(=O)c1cnc2cc(COC(C)(C)CO)ccn12` (stereo not shown) [I-64], for which the “Solubility (μM)” value was “** (a solubility greater than 10 μM and less than or equal to 50 μM)”. In the case of `Cc1ccc(-c2noc([C@H]3C[C@@H]3F)n2)cc1NC(=O)c1cnc2ccc(CNC(=O)CO)cn12` [I-8] it was “**** (a solubility less than or equal to 2 μM)”. Take `O=C(Nc1cc(-c2noc(CC(O)C(F)F)n2)ccc1Cl)c1cnc2ccccn12` (single isomer, unassigned) [I-62]: the “Solubility (μM)” value was “**** (a solubility less than or equal to 2 μM)”. With `Cc1ccc(-c2noc(C3CC3(F)F)n2)cc1NC(=O)c1cnc2cc(COCCO)ccn12` (stereo not shown) [I-58], the “Solubility (μM)” value was “** (a solubility greater than 10 μM and less than or equal to 50 μM)”. Consider `Cc1ccc(-c2noc([C@H]3C[C@@H]3F)n2)cc1NC(=O)c1cnc2cc(CF)ccn12` [I-49], for which the “Solubility (μM)” value was “**** (a solubility less than or equal to 2 μM)”.

Regarding `O=C(Nc1cccc(-c2noc(C3CC3F)n2)c1F)c1cnc2cc(COCCO)ccn12` (stereo not shown) [I-57], the “Solubility (μM)” value is recorded as “**** (a solubility less than or equal to 2 μM)”.

As for `CC(=O)NCc1ccn2c(C(=O)Nc3cc(-c4noc([C@H]5C[C@@H]5F)n4)ccc3C)cnc2c1` [I-32], the “Solubility (μM)” value is on record as “**** (a solubility less than or equal to 2 μM)”. As for `Cc1ccc(-c2noc(C3CC3F)n2)cc1NC(=O)c1cnc2cc(COC(C)CO)ccn12` (stereo not shown) [I-59], the entry is “* (a solubility greater than 50 μM)”; as for `Cc1ccc(-c2noc([C@H]3C[C@@H]3F)n2)cc1NC(=O)c1cnc2cc(C(C)(F)F)ccn12` [I-44], “**** (a solubility less than or equal to 2 μM)”; as for `Cc1ccc(-c2noc([C@H]3C[C@@H]3F)n2)cc1NC(=O)c1cnc2ccc(N3CCCC3=O)cn12` [I-4], “**** (a solubility less than or equal to 2 μM)”. Take `Cc1ccc(-c2noc([C@H]3C[C@@H]3F)n2)cc1NC(=O)c1cnc2cc(CNS(=O)(=O)C3CC3)ccn12` [I-10]: the “Solubility (μM)” value was “**** (a solubility less than or equal to 2 μM)”. As for `Cc1ccc(-c2noc(C3COC3)n2)cc1NC(=O)c1cnc2cc(COCCO)ccn12` [I-50], the entry is “*** (a solubility greater than 2 μM and less than or equal to 10 μM)”; as for `O=C(Nc1cc(-c2noc(CC(O)C(F)F)n2)ccc1Cl)c1cnc2ccccn12` (single isomer, unassigned) [I-61], “**** (a solubility less than or equal to 2 μM)”; as for `Cc1ccc(-c2noc([C@H]3C[C@@H]3F)n2)cc1NC(=O)c1cnc2ccc(CS(C)(=O)=O)cn12` [I-12], “**** (a solubility less than or equal to 2 μM)”. As for `Cc1ccc(-c2noc([C@H]3C[C@@H]3F)n2)cc1NC(=O)c1cnc2cc(CNS(C)(=O)=O)ccn12` [I-17], the entry is “**** (a solubility less than or equal to 2 μM)”; as for `Cc1ccc(-c2noc([C@H]3CC4(CC4)CN3)n2)cc1NC(=O)c1cnc2ccccn12` [I-231], “** (a solubility greater than 10 μM and less than or equal to 50 μM)”. As to `Cc1ccc(-c2noc(CC(O)C(F)F)n2)cc1NC(=O)c1cnc2cc(OC(F)(F)F)ccn12` (single isomer, unassigned) [I-13], the “Solubility (μM)” value was “**** (a solubility less than or equal to 2 μM)”. In the case of `Cc1ccc(-c2noc([C@H]3C[C@@H]3F)n2)cc1NC(=O)c1cnc2cc(C(=O)N3CCCC3)ccn12` [I-3] it was “*** (a solubility greater than 2 μM and less than or equal to 10 μM)”. In the case of `O=C(Nc1cc(-c2noc(C3CC3(F)F)n2)ccc1Cl)c1cnc2ccccn12` (stereo not shown) [I-74] it was “**** (a solubility less than or equal to 2 μM)”; in that of `Cc1ccc(-c2noc(CC(O)C(F)(F)F)n2)cc1NC(=O)c1cnc2ccccn12` (single isomer, unassigned) [I-68], “**** (a solubility less than or equal to 2 μM)”. For the molecule `Cc1ccc(-c2noc(C3COC3)n2)cc1NC(=O)c1cnc2cc(CC(F)(F)F)ccn12` [I-36], the “Solubility (μM)” value is “**** (a solubility less than or equal to 2 μM)”. In the case of `COc1cc2ncc(C(=O)Nc3cc(-c4noc([C@H]5C[C@@H]5F)n4)ccc3C)n2cc1C` [I-42] it was “**** (a solubility less than or equal to 2 μM)”; in that of `Cc1ccc(-c2noc(C3CC3F)n2)cc1NC(=O)c1cnc2cc(CNC(=O)C3CCCO3)ccn12` (mixture of isomers) [I-33], “*** (a solubility greater than 2 μM and less than or equal to 10 μM)”. For the molecule `COc1cc2ncc(C(=O)Nc3cc(-c4noc([C@H]5C[C@@H]5F)n4)ccc3C)n2cc1C(F)F` [I-29], the “Solubility (μM)” value is recorded as “**** (a solubility less than or equal to 2 μM)”.

In the case of `Cc1ccc(-c2noc([C@H]3C[C@@H]3F)n2)cc1NC(=O)c1cnc2ccc(S(C)(=O)=O)cn12` [I-18], the “Solubility (μM)” value was “**** (a solubility less than or equal to 2 μM)”. As for `Cc1ccc(-c2noc(C3CC3F)n2)cc1NC(=O)c1cnn2cccc(C(F)F)c12` (stereo not shown) [I-60], the entry is “**** (a solubility less than or equal to 2 μM)”; as for `COC(=O)NCc1ccn2c(C(=O)Nc3cc(-c4noc([C@H]5C[C@@H]5F)n4)ccc3C)cnc2c1` [I-30], “**** (a solubility less than or equal to 2 μM)”; as for `COc1cc2ncc(C(=O)Nc3cc(-c4noc([C@H]5C[C@@H]5F)n4)ccc3C)n2cc1C(F)(F)F` [I-41], “**** (a solubility less than or equal to 2 μM)”. In the case of `Cc1ccc(-c2noc([C@H]3C[C@@H]3F)n2)cc1NC(=O)c1cnc2cc3c(cn12)COC3` [I-28] it was “**** (a solubility less than or equal to 2 μM)”; in that of `COc1ccc2c(C(=O)Nc3cc(-c4noc([C@H]5C[C@@H]5F)n4)ccc3C)cnn2c1` [I-21], “**** (a solubility less than or equal to 2 μM)”; in that of `Cc1cn2c(C(=O)Nc3cc(-c4noc([C@H]5C[C@@H]5F)n4)ccc3C)cnc2cc1C#N` [I-26], “**** (a solubility less than or equal to 2 μM)”. On to `COc1cc2ncc(C(=O)Nc3cc(-c4noc([C@H]5C[C@@H]5F)n4)ccc3C)n2cc1F` [I-27], for which the “Solubility (μM)” value is “**** (a solubility less than or equal to 2 μM)”. Consider `Cc1ccc(-c2noc(C3COC3)n2)cc1NC(=O)c1cnn2cc(C(F)F)ccc12` [I-20], for which the “Solubility (μM)” value is “**** (a solubility less than or equal to 2 μM)”.
